{"source": "paper PMC10423218", "about": "“Molecular mechanism underlying regulation of Arabidopsis CLCa transporter by nucleotides and phospholipids” (Nature Communications, 2023)", "molecules": {"B1": {"name": "Arabidopsis thaliana CLCa (AtCLCa) transporter (natural protein, UniProt P92941 1-775, looked up)", "chain": "MDEDGNLQISNSNYNGEEEGEDPENNTLNQPLLKRHRTLSSTPLALVGAKVSHIESLDYEINENDLFKHDWRSRSKAQVFQYIFLKWTLACLVGLFTGLIATLINLAVENIAGYKLLAVGYYIAQDRFWTGLMVFTGANLGLTLVATVLVVYFAPTAAGPGIPEIKAYLNGIDTPNMFGFTTMMVKIVGSIGAVAAGLDLGKEGPLVHIGSCIASLLGQGGPDNHRIKWRWLRYFNNDRDRRDLITCGSASGVCAAFRSPVGGVLFALEEVATWWRSALLWRTFFSTAVVVVVLRAFIEICNSGKCGLFGSGGLIMFDVSHVEVRYHAADIIPVTLIGVFGGILGSLYNHLLHKVLRLYNLINQKGKIHKVLLSLGVSLFTSVCLFGLPFLAECKPCDPSIDEICPTNGRSGNFKQFNCPNGYYNDLSTLLLTTNDDAVRNIFSSNTPNEFGMVSLWIFFGLYCILGLITFGIATPSGLFLPIILMGSAYGRMLGTAMGSYTNIDQGLYAVLGAASLMAGSMRMTVSLCVIFLELTNNLLLLPITMFVLLIAKTVGDSFNLSIYEIILHLKGLPFLEANPEPWMRNLTVGELNDAKPPVVTLNGVEKVANIVDVLRNTTHNAFPVLDGADQNTGTELHGLILRAHLVKVLKKRWFLNEKRRTEEWEVREKFTPVELAEREDNFDDVAITSSEMQLYVDLHPLTNTTPYTVVQSMSVAKALVLFRSVGLRHLLVVPKIQASGMSPVIGILTRQDLRAYNILQAFPHLDKHKSGKAR", "notes": "Arabidopsis thaliana CLCa, Uniprot P92941, full-length gene; C-terminal GFP-6xHis tag was fused by a short linker with a TEV protease site and cut off with TEV; residues of the linker may be left; also called AtCLCa-Cl-; AtCLCa-NO3-; source: Pichia pastoris GS115, purified (anti-GFP nanobody resin, TEV digestion, SEC), reconstituted into MSP1D1 nanodiscs; not shown: GFP, C-terminal, cleaved; …"}}, "key": {"AtCLCa [1]": {"target": "T1, AtCLCa (Arabidopsis thaliana, UniProt P92941)", "T1 sequence (P92941 1-775)": "B1 chain", "assay": "whole-cell patch clamp, HEK293T", "assay_type": "cell-based", "parameters": "gene CLC-A; full-length, homodimer; patch clamp: pKH3 vector in HEK293T", "conditions": "pipette (cytosolic side); pH 7.4"}, "AtCLCa [2]": {"target": "T1, AtCLCa", "assay": "whole-cell patch clamp, HEK293T", "assay_type": "cell-based", "parameters": "gene CLC-A; full-length, homodimer; patch clamp: pKH3 vector in HEK293T", "conditions": "5 mM in pipette (cytosolic side); nitrate bath; pH 7.4"}, "AtCLCa [3]": {"target": "T2, AtCLCa (Arabidopsis thaliana, UniProt P92941, E55A/S56A)", "T2 construct": "gene CLC-A; full-length, homodimer; structures: Pichia pastoris GS115, C-terminal GFP-6xHis tag cut by TEV, MSP1D1 nanodiscs; patch clamp: pKH3 vector in HEK293T", "T2 sequence (P92941 1-775 E55A/S56A)": "B1 chain with E55A, S56A", "assay": "whole-cell patch clamp, HEK293T", "assay_type": "cell-based", "conditions": "5 mM in pipette (cytosolic side); nitrate bath; pH 7.4"}, "AtCLCa ΔN44 mutant": {"target": "T3, AtCLCa ΔN44 mutant (Arabidopsis thaliana, UniProt P92941)", "T3 construct": "gene CLC-A; N-terminal 44-residue deletion, beta-hairpin retained, homodimer, pKH3 vector in HEK293T", "T3 sequence (P92941 45-775)": "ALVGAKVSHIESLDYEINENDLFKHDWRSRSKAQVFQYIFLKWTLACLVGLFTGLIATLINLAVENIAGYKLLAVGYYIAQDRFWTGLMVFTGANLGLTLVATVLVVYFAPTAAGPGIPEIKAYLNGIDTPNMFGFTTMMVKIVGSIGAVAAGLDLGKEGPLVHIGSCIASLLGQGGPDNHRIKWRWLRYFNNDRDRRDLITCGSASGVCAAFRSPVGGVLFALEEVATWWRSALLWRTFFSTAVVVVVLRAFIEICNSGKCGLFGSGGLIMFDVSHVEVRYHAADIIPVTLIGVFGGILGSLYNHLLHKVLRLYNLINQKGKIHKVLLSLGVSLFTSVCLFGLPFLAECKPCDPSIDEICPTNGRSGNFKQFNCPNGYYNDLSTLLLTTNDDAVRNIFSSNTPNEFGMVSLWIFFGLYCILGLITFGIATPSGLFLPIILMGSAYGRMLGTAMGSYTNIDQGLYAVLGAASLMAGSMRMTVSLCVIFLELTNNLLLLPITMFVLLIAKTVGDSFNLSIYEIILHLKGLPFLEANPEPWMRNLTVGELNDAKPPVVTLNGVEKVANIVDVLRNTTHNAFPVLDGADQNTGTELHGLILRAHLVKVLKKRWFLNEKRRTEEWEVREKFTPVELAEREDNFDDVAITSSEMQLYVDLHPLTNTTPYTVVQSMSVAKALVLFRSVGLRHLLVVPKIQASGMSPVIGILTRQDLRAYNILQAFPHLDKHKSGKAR", "assay": "whole-cell patch clamp, HEK293T", "assay_type": "cell-based", "conditions": "5 mM in pipette (cytosolic side); nitrate bath; pH 7.4"}, "AtCLCa [4]": {"target": "T4, AtCLCa (Arabidopsis thaliana, UniProt P92941, D753A)", "T4 construct": "gene CLC-A; full-length, homodimer; structures: Pichia pastoris GS115, C-terminal GFP-6xHis tag cut by TEV, MSP1D1 nanodiscs; patch clamp: pKH3 vector in HEK293T", "T4 sequence (P92941 1-775 D753A)": "B1 chain with D753A", "assay": "whole-cell patch clamp, HEK293T", "assay_type": "cell-based", "conditions": "5 mM in pipette (cytosolic side); nitrate bath; pH 7.4"}, "AtCLCa ΔN53 mutant": {"target": "T5, AtCLCa ΔN53 mutant (Arabidopsis thaliana, UniProt P92941)", "T5 construct": "gene CLC-A; N-terminal deletion ΔN53 (beta-hairpin residues 44-53 removed), homodimer, pKH3 vector in HEK293T", "T5 sequence (P92941 54-775)": "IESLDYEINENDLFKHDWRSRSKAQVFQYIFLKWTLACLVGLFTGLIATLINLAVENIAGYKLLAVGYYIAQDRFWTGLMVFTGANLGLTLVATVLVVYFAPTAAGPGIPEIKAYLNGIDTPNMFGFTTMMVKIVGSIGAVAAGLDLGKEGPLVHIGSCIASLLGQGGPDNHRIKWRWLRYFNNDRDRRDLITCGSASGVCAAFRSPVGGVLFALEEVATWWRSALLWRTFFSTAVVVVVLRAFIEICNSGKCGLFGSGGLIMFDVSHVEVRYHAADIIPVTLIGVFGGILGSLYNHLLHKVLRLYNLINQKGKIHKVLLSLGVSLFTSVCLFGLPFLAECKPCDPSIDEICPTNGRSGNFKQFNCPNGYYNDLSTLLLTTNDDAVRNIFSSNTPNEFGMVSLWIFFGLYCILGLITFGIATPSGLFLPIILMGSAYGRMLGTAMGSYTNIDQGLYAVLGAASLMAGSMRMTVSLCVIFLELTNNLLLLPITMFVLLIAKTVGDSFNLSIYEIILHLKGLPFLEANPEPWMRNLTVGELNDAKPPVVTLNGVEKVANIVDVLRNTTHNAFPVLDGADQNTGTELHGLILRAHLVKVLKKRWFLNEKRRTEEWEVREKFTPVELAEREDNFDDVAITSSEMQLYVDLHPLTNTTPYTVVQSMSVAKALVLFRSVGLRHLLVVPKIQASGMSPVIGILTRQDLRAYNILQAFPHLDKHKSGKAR", "assay": "whole-cell patch clamp, HEK293T", "assay_type": "cell-based", "conditions": "5 mM in pipette (cytosolic side); nitrate bath; pH 7.4"}, "AtCLCa [5]": {"target": "T1, AtCLCa", "assay": "whole-cell patch clamp, HEK293T", "assay_type": "cell-based", "parameters": "gene CLC-A; full-length, homodimer; patch clamp: pKH3 vector in HEK293T", "conditions": "5 mM in pipette (cytosolic side); nitrate bath; pH 7.4; 5 mM MgCl2; room temperature"}, "AtCLCa [6]": {"target": "T1, AtCLCa", "assay": "cryo-EM structure, […] Å", "assay_type": "binding", "parameters": "gene CLC-A; full-length, homodimer; structures: Pichia pastoris GS115, C-terminal GFP-6xHis tag cut by TEV, MSP1D1 nanodiscs; patch clamp: pKH3 vector in HEK293T", "conditions": "Scen and Sint sites; 150 mM NaNO3, pH 8.0"}, "[7]": {"target": "the molecule itself", "assay": "cryo-EM structure; AtCLCa in MSP1D1 nanodiscs with soybean polar lipid; 20 mM Tris pH 8.0 with 150 mM NaCl (AtCLCa-Cl-) or 150 mM NaNO3 (AtCLCa-NO3-); C2 symmetry applied"}}, "note": "Substitutions are numbered along the chain they refer to."}
{"molecule": "Nc1ncnc2c1ncn2[C@@H]1O[C@H](COP(=O)(O)OP(=O)(O)OP(O)(O)=S)[C@@H](O)[C@H]1O", "note": "[ATP-γ-S]", "values": [{"measurement": "inhibition of currents", "setting": "AtCLCa [1]", "value": "ATP-γ-S induced an inhibition comparable with ATP"}]}
{"molecule": "Nc1ncnc2c1ncn2[C@@H]1O[C@H](COP(=O)(O)O)[C@@H](O)[C@H]1O", "note": "[AMP]", "values": [{"measurement": "inhibition of NO3^- currents at 5 mM", "setting": "AtCLCa [2]", "value": "ADP produced a weak inhibition while AMP induced a negligible inhibition"}]}
{"molecule": "Nc1ncnc2c1ncn2[C@@H]1O[C@H](COP(=O)(O)OP(=O)(O)OP(=O)(O)O)[C@@H](O)[C@H]1O", "note": "[ATP]", "values": [{"measurement": "inhibition of NO3^- currents at 5 mM", "setting": "AtCLCa [3]", "value": "(E55A/S56A) can completely abolish the inhibitory effect of ATP"}, {"measurement": "inhibition of NO3^- currents at 5 mM", "setting": "AtCLCa ΔN44 mutant", "value": "exhibits similar inhibition pattern to wild-type AtCLCa upon ATP addition"}, {"measurement": "inhibition of NO3^- currents at 5 mM", "setting": "AtCLCa [4]", "value": "D753A mutant impairs the inhibition of ATP"}, {"measurement": "inhibition of NO3^- currents at 5 mM", "setting": "AtCLCa ΔN53 mutant", "value": "the NO3^− currents in ΔN53 mutant are not influenced by the addition of ATP"}, {"measurement": "decrease of NO3^- currents at 5 mM", "setting": "AtCLCa [5]", "value": "led to a decrease of approximately half of the NO3^− currents induced by wild-type AtCLCa"}]}
{"molecule": "Nc1ncnc2c1ncn2[C@@H]1O[C@H](COP(=O)(O)OP(=O)(O)O)[C@@H](O)[C@H]1O", "note": "[ADP]", "values": [{"measurement": "inhibition of NO3^- currents at 5 mM", "setting": "AtCLCa [2]", "value": "ADP produced a weak inhibition while AMP induced a negligible inhibition"}]}
{"molecule": "O=[N+]([O-])O", "note": "[NO3^−]", "values": [{"measurement": "cryo-EM structure, 3.2 Å", "setting": "AtCLCa [6]", "value": "Scen and Sint were found of fair densities, which likely corresponds to the bound NO3^−"}]}
{"molecule": "B1", "values": [{"measurement": "stoichiometry N", "setting": "[7]", "value": 2}]}
